Experiment [1] deals with human P2X3 receptor (Homo sapiens (Human), UniProt P56373). The experiment can be described thus: Intracellular calcium measurement (FLIPR, Fluo-4) of antagonist activity at human P2X3 receptors. The format is cell-based. The following applies: read-out: hP2X3 IC50. A digest of the protocol:
(§1)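 Antagonism quantified from peak calcium fluorescence (Fluo-4, FLIPR, 90 sec read) evoked by EC80 α,β-Me-ATP, after a 30 min, 37° C. compound pretreatment in 1% DMSO. Human P2X3- or P2X2/3-expressing cells used; triplicate means fitted for IC50, percent maximal inhibition and Hill coefficient.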
On the technique in general: Calcium flux is commonly read through the fluorescence of an indicator in the cells.

Experiment [2] has as its target human P2X2/3 receptor (Homo sapiens (Human), UniProt P56373+Q9UBL9). The experiment can be described thus: Intracellular calcium measurement (FLIPR, Fluo-4) of antagonist activity at human P2X2/3 receptors. The settings on record: human P2X2/3, FLIPR calcium assay, agonist α,β-Me-ATP; read-out: hP2X2/3 IC50. The format is cell-based. A digest of the protocol:
as §1

The mark [3] stands for this setting: human P2X3, FLIPR calcium assay, agonist α,β-Me-ATP.

Where two headings read alike, the source gives them in different places.

Chain of human P2X3 receptor (P56373 whole entry): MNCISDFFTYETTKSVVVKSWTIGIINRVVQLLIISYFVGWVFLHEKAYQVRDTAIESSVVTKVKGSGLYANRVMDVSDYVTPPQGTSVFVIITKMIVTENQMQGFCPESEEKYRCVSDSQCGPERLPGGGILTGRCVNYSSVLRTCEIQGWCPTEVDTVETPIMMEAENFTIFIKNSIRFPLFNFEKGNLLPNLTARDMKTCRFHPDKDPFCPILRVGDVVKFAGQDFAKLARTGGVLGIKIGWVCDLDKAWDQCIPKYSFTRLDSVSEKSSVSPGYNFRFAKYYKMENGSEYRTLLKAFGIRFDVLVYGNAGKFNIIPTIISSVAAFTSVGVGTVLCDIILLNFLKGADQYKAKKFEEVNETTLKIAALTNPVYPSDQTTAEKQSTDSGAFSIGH
Chain of human P2X2/3 receptor (P56373 whole entry): as above
Chain of human P2X2/3 receptor (Q9UBL9 whole entry): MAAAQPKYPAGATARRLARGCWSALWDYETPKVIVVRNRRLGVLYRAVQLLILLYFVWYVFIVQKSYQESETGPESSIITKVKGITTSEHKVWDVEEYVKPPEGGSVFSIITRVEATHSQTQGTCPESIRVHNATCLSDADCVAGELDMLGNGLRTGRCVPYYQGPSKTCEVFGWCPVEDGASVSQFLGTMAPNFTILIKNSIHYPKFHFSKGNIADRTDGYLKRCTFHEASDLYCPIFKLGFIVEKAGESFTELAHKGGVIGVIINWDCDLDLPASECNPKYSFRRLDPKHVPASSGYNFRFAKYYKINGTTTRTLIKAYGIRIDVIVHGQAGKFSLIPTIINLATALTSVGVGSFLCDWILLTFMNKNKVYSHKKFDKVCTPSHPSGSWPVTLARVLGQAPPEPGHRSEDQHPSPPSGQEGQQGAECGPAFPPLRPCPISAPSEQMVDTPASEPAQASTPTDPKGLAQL

For `Cc1cnc(-c2cc(OC3C4COCC3CN(C(C)C)C4)cc(C(=O)N[C@H](C)c3cnc(C(F)(F)F)nc3)c2)s1` (stereo partly drawn) [Example 344, 3-[(7-isopropyl-3-oxa-7-azabicyclo[3.3.1]non-9-yl)oxy]-5-(5-methyl-1,3-thiazol-2-yl)-N-{(1R)-1-[2-(trifluoromethyl)pyrimidin-5-yl]ethyl}benzamide], the results for the IC50 in experiment [1] (setting [3]) and in experiment [2] were 34 nM and 987 nM, respectively.

Regarding `COC(=O)N1CC2COCC(C1)C2Oc1cc(C(=O)N[C@H](C)c2cnc(C(F)(F)F)nc2)cc(-c2ncc(C)s2)c1` (stereo partly drawn) [Example 345, methyl 9-[3-(5-methyl-1,3-thiazol-2-yl)-5-({(1R)-1-[2-(trifluoromethyl)pyrimidin-5-yl]ethyl}carbamoyl)phenoxy]-3-oxa-7-azabicycle[3.3.1]nonane-7-carboxylate], the IC50 was found to be 7 nM in experiment [1] (setting [3]) and 99 nM in experiment [2].

Consider `Cc1cnc(-c2cc(OC[C@H]3CNCCO3)cc(C(=O)N[C@H](C)c3cnc(C(F)(F)F)nc3)c2)s1` [Example 347, 3-(5-Methyl-1,3-thiazol-2-yl)-5-[(2R)-morpholin-2-ylmethoxy]-N-{(1R)-1-[2-(trifluoromethyl)pyrimidin-5-yl]ethyl}benzamide], for which the IC50 in experiment [1] (setting [3]) was found to be 9 nM; in experiment [2], 1520 nM.

For the compound `Cc1cnc(-c2cc(OC[C@@H]3CNCCO3)cc(C(=O)N[C@H](C)c3cnc(C(F)(F)F)nc3)c2)s1` [Example 350, 3-(5-Methyl-1,3-thiazol-2-yl)-5-[(2S)-morpholin-2-ylmethoxy]-N-{(1R)-1-[2-(trifluoromethyl)pyrimidin-5-yl]ethyl}benzamide], the figures for the IC50 in experiment [1] (setting [3]) and in experiment [2] were 14 nM and 1160 nM, respectively.

`Cc1cnc(-c2cc(OC[C@@H]3CN(C)CCO3)cc(C(=O)N[C@H](C)c3cnc(C(F)(F)F)nc3)c2)s1` [Example 351, 3-{[(2S)-4-methylmorpholin-2-yl]methoxy}-5-(5-methyl-1,3-thiazol-2-yl)-N-{(1R)-1-[2-(trifluoromethyl)pyrimidin-5-yl]ethyl}benzamide]: the IC50 in experiment [1] (setting [3]) was 16 nM; in experiment [2], 690 nM.

Regarding `Cc1cnc(-c2cc(OCC3CNCCO3)cc(C(=O)N[C@H](C)c3cnc(C(F)(F)F)nc3)c2)s1` (stereo partly drawn) [Example 352, 3-(5-Methyl-1,3-thiazol-2-yl)-5-[morpholin-2-ylmethoxy]-N-{(1R)-1-[2-(trifluoromethyl)pyrimidin-5-yl]ethyl}benzamide], the IC50 in experiment [1] (setting [3]) is 18 nM; in experiment [2] it was 1140 nM.

Regarding `Cc1cnc(-c2cc(OCC3CN(C)CCO3)cc(C(=O)N[C@H](C)c3cnc(C(F)(F)F)nc3)c2)s1` (stereo partly drawn) [Example 353, 3-{[4-methylmorpholin-2-yl]methoxy}-5-(5-methyl-1,3-thiazol-2-yl)-N-{(1R)-1-[2-(trifluoromethyl)pyrimidin-5-yl]ethyl}benzamide], the results for the IC50 in experiment [1] (setting [3]) and in experiment [2] were 7 nM and 427 nM, respectively.

Turning to `Cc1cnc(-c2cc(OC[C@@]3(F)CCCNC3)cc(C(=O)N[C@H](C)c3cnc(C(F)(F)F)nc3)c2)s1` [Example 354], the figures for the IC50 in experiment [1] (setting [3]) and in experiment [2] were 25 nM and 1030 nM, respectively.

In the case of `Cc1cnc(-c2cc(OCC3(F)CNC3)cc(C(=O)N[C@H](C)c3cnc(C(F)(F)F)nc3)c2)s1` [Example 358, 3-[(3-fluoroazetidin-3-yl)methoxy]-5-(5-methyl-1,3-thiazol-2-yl)-N-{(1R)-1-[2-(trifluoromethyl)pyrimidin-5-yl]ethyl}benzamide], the IC50 in experiment [1] (setting [3]) was determined as 57 nM; in experiment [2], 1440 nM.

Consider `Cc1cnc(-c2cc(OCC3CNCCC3(F)F)cc(C(=O)N[C@H](C)c3cnc(C(F)(F)F)nc3)c2)s1` (stereo partly drawn) [Example 359, 3-{[4,4-difluoropiperidin-3-yl]methoxy}-5-(5-methyl-1,3-thiazol-2-yl)-N-{(1R)-1-[2-(trifluoromethyl)pyrimidin-5-yl]ethyl}benzamide], for which the IC50 in experiment [1] (setting [3]) was 6 nM; in experiment [2], 200 nM.

For `Cc1cnc(-c2cc(OC[C@H]3COCCN3C)cc(C(=O)N[C@H](C)c3cnc(C(F)(F)F)nc3)c2)s1` [Example 360], the IC50 in experiment [1] (setting [3]) stood at 10 nM; in experiment [2] it was 455 nM.

With `Cc1cnc(-c2cc(OC[C@@H]3COCCN3C)cc(C(=O)N[C@H](C)c3ccc(C(F)(F)F)nc3)c2)s1` [Example 361, 3-{[(3S)-4-methylmorpholin-3-yl]methoxy}-5-(5-methyl-1,3-thiazol-2-yl)-N-{(1R)-1-[6-(trifluoromethyl)pyridin-3-yl]ethyl}benzamide], the IC50 in experiment [1] (setting [3]) amounted to 14 nM; in experiment [2] it was 1250 nM.

`Cc1cnc(-c2cc(OC[C@@H]3COCCN3C)cc(C(=O)N[C@H](C)c3cnc(C(F)(F)F)nc3)c2)s1` [Example 362]: the figures for the IC50 in experiment [1] (setting [3]) and in experiment [2] were 8 nM and 1010 nM, respectively.

Consider `Cc1cnc(-c2cc(OC[C@H]3COCCN3C)cc(C(=O)N[C@H](C)c3ccc(C(F)(F)F)nc3)c2)s1` [Example 363, 3-{[(3R)-4-methylmorpholin-3-yl]methoxy}-5-(5-methyl-1,3-thiazol-2-yl)-N-{(1R)-1-[6-(trifluoromethyl)pyridin-3-yl]ethyl}benzamide], for which the results for the IC50 in experiment [1] and in experiment [2] were 12 nM and 717 nM, respectively.

Consider `Cc1cnc(-c2cc(OCC3CC(F)CN3C)cc(C(=O)N[C@H](C)c3cnc(C(F)(F)F)nc3)c2)s1` (stereo partly drawn) [Example 364, 3-{[4-fluoro-1-methylpyrrolidin-2-yl]methoxy}-5-(5-methyl-1,3-thiazol-2-yl)-N-{(1R)-1-[2-(trifluoromethyl)pyrimidin-5-yl]ethyl}benzamide], for which the IC50 stood at 16 nM in experiment [1] (setting [3]) and 943 nM in experiment [2].

As to `Cc1cnc(-c2cc(OCC3CC(F)CN3C)cc(C(=O)N[C@H](C)c3ccc(C(F)(F)F)nc3)c2)s1` (stereo partly drawn) [Example 365, 3-{[4-fluoro-1-methylpyrrolidin-2-yl]methoxy}-5-(5-methyl-1,3-thiazol-2-yl)-N-{(1R)-1-[6-(trifluoromethyl)pyridin-3-yl]ethyl}benzamide], the IC50 in experiment [1] (setting [3]) is 21 nM; in experiment [2], 1050 nM.

For the compound `Cc1cnc(-c2cc(OC[C@H]3CN(C)CCO3)cc(C(=O)N[C@H](C)c3ccc(C(F)(F)F)nc3)c2)s1` [Example 366, 3-{[(2R)-4-methylmorpholin-2-yl]methoxyl}-5-(5-methyl-1,3-thiazol-2-yl)-N-{(1R)-1-[6-(trifluoromethyl)pyridin-3-yl]ethyl}benzamide], the IC50 in experiment [1] (setting [3]) was 18 nM; in experiment [2], 977 nM.

For `C[C@@H](NC(=O)c1cc(OC[C@H]2CN(C)CCO2)cc(-c2ncc(Cl)s2)c1)c1cnc(C(F)(F)F)nc1` [Example 367, 3-(5-chloro-1,3-thiazol-2-yl)-5-{[(2R)-4-methylmorpholin-2-yl]methoxy}-N-{(1R)-1-[2-(trifluoromethyl)pyrimidin-5-yl]ethyl}benzamide], the IC50 in experiment [1] (setting [3]) amounted to 13 nM; in experiment [2], 506 nM.

With `Cc1cnc(-c2cc(OC[C@@H]3CN(C)CCO3)cc(C(=O)NCc3cnc(C(F)(F)F)nc3)c2)s1` [Example 368, 3-{[(2S)-4-methylmorpholin-2-yl]methoxy}-5-(5-methyl-1,3-thiazol-2-yl)-N-{[2-(trifluoromethyl)pyrimidin-5-yl]methyl}benzamide], the IC50 stood at 84 nM in experiment [1] (setting [3]) and 1090 nM in experiment [2].

On to `Cc1cnc(-c2cc(OC[C@H]3CN(C)CCO3)cc(C(=O)N[C@H](C)c3ccc(C(F)F)nc3)c2)s1` [Example 369, N-{(1R)-1-[6-(difluoromethyl)pyridin-3-yl]ethyl}-3-{[(2R)-4-methylmorpholin-2-yl]methoxy}-5-(5-methyl-1,3-thiazol-2-yl)benzamide], for which the IC50 was determined as 11 nM in experiment [1] (setting [3]) and 328 nM in experiment [2].

Consider `Cc1cnc(-c2cc(OC[C@@H]3CN(C)CCO3)cc(C(=O)N[C@H](C)c3ccc(C(F)(F)F)nc3)c2)s1` [Example 370, 3-{[(2S)-4-methylmorpholin 2-yl]methoxy}-5-(5-methyl-1,3-thiazol-2-yl)-N-{(1R)-1-[6-(trifluoromethyl)pyridin-3-yl]ethyl}benzamide], for which the figures for the IC50 in experiment [1] (setting [3]) and in experiment [2] were 41 nM and 1010 nM, respectively.

`Cc1cnc(-c2cc(OCC3(F)CN(C)C3)cc(C(=O)N[C@H](C)c3cnc(C(F)(F)F)nc3)c2)s1` [Example 371, 3-[(3-fluoro-1-methylazetidin-3-yl}methoxy]-5-(5-methyl-1,3-thiazol-2-yl)-N-{(1R)-1-[2-(trifluoromethyl)pyrimidin-5-yl]ethyl}benzamide]: the results for the IC50 in experiment [1] (setting [3]) and in experiment [2] were 24 nM and 1170 nM, respectively.

Turning to `Cc1cnc(-c2cc(OC[C@H]3CN(C)CCO3)cc(C(=O)NCc3cnc(C(F)(F)F)nc3)c2)s1` [Example 372, 3-{[(2R)-4-methylmorpholin-2-yl]methoxy}-5-(5-methyl-1,3-thiazol-2-yl)-N-{[2-(trifluoromethyl)pyrimidin-5-yl]methyl}benzamide], the IC50 is 19 nM in experiment [1] (setting [3]) and 1210 nM in experiment [2].

On to `Cc1cnc(-c2cc(OC[C@H]3CN(C)CCO3)cc(C(=O)N[C@H](C)c3ccc(C(F)(F)F)nn3)c2)s1` [Example 373, 3-{[(2R)-4-methylmorpholin-2-yl]methoxy}-5-(5-methyl-1,3-thiazol-2-yl)-N-{(1R)-1-[6-(trifluoromethyl)pyridazin-3-yl]ethyl}benzamide], for which the IC50 in experiment [1] (setting [3]) was 21 nM; in experiment [2] it was 2830 nM.

For `Cc1cnc(-c2cc(OC[C@@H]3CN(C)CCO3)cc(C(=O)N[C@H](C)c3ccc(C(F)(F)F)nn3)c2)s1` [Example 374, 3-{[(2S)-4-methylmorpholin-2-yl]methoxy}-5-(5-methyl-1,3-thiazol-2-yl)-N-{(1R)-1-[6-(trifluoromethyl)pyridazin-3-yl]ethyl}benzamide], the IC50 in experiment [1] (setting [3]) was found to be 55 nM; in experiment [2] it was 2560 nM.

Source of the values: patent publication US10174016B2 (BAYER AKTIENGESELLSCHAFT, priority 2014, dated 2019).
